In patent publication US20240294479A1, “POLYMORPHS OF 2-(3,5-DICHLOROPHENYL)-L,3-BENZOXAZOLE-6-CARBOXYLIC ACID” (HONOUR LAB LIMITED, priority 2021, published 2024):
Converted amounts (≈) assume the structure as drawn.

What was measured:
[1] = Solubility of Tafamidis crystalline forms in water at different pH; type: physicochemical
Protocol: However the crystalline Forms of the present invention has water solubility greater than or equal to 3 μg/mL at pH 5 and below.
The solubility of Tafamidis crystallin Form HN3 in water at different pH is as follows: […]

[2] = at pH 5 and below; EMEA scientific discussion; cited from earlier work

SMILES: O=C(O)c1ccc2nc(-c3cc(Cl)cc(Cl)c3)oc2c1 [Form HN3, 2-(3,5-dichlorophenyl)-1,3-benzoxazole-6-carboxylic acid]
- solubility ([1]; pH 3, aqueous buffer): 3 µg/mL (≈ 9.74 µM)
- solubility ([1]; pH 4, aqueous buffer): 3 µg/mL (≈ 9.74 µM)
- solubility ([1]; pH 5, aqueous buffer): 3 µg/mL (≈ 9.74 µM)

SMILES: O=C(O)c1ccc2nc(-c3cc(Cl)cc(Cl)c3)oc2c1 [Tafamidis (Form 1), 2-(3,5-dichlorophenyl)-1,3-benzoxazole-6-carboxylic acid]
- water solubility [2]: < 2 µg/mL
